The text below walks through data of US11298403B2, “Therapeutic agent for inflammatory bowel disease” (StemRIM Inc., priority 2017, dated 2022).

Type in all cases: in vivo, C57BL/6 mice
Assay [1] concerns IBD model mice (DSS-induced enteritis). In words: DSS-induced colitis (IBD) model mice, Example 3: peptide-containing hydrogel embedded on the back; body weight, large intestine length. The conditions noted are these: 10th day of DSS drinking, MedGel PI5 hydrogel with 20 μl of 5 μg/μl peptide embedded on the back one day before DSS, n=3. As for the experimental part: (§1) Colitis was induced in C57BL/6 mice (8 to 10-week-old, male, body weight about 20 g) by allowing them to freely drink the 3% DSS aqueous solution in place of purified water (RO water) (drinking of the DSS aqueous solution was continued until the removal of the large intestine). Mice that were allowed to freely drink purified water (RO water) (hereinafter, referred to as “normal mice”) were used as comparative subjects.
(§2) The DSS aqueous solution and the HMGB1 peptide (1-44) were prepared and the inflammatory bowel disease model mice were produced in the same way as Example 1.
A bioabsorbable hydrogel (MedGel (registered trademark) PI5, manufactured by MedGEL CO., LTD) cut into a size of about 5 mm×5 mm was soaked with 20 μl of an HMGB1 peptide (1-44) solution, which has been adjusted to a concentration of 5 μg/μl with saline as the vehicle, by dripping and allowed to stand under ice-cooling for 30 minutes. The resulting hydrogel was used for embedding in the mice of the HMGB1 peptide (1-44) administration group. […]
The body weight of the mice was measured daily from the start of drinking the DSS aqueous solution until the removal of the large intestine. On the 10th day of DSS drinking, the large intestine was excised from the mice, and the length of the large intestine was measured.

The test system is the same in assay [2]. Briefly: DSS-induced colitis (IBD) model mice, Example 2: intravenous peptide on 1st, 3rd, 5th and 7th days; body weight, large intestine length, HE staining. The conditions noted are these: 10th day of DSS drinking, 5 mg/kg i.v. on 1st. As for the experimental part: as §1, §2
The IBD model mice produced as described in Example 1 were divided into the HMGB1 peptide (1-44) administration group (n=3) and the control group (n=3). The test substance was administered by injecting an HMGB1 peptide (1-44) solution, which has been adjusted to a concentration of 0.5 mg/ml with saline as the vehicle, into the vein at a dose of 200 μl/animal (5 mg/kg as the peptide dose) on the 1st, 3rd, 5th, and 7th days of DSS drinking. In the control group, saline was injected into the vein at a dose of 200 μl/animal on the 1st, 3rd, 5th, and 7th days of DSS drinking. No substance was administered to the normal mice (n=3).
The body weight of the mice was measured daily from the start of drinking the DSS aqueous solution until the removal of the large intestine. On the 10th day of DSS drinking, the large intestine was excised from the mice, and the length of the large intestine was measured. Tissue sections of the cross-section of the intestinal tract were produced using the terminal part near the anus of the excised large intestine, and hematoxylin-eosin (HE) staining was performed.

Assay [3] has as its system TNF-α. In words: Example 1: inflammatory cytokine mRNA in large intestine by quantitative PCR (TNF-α). The conditions noted are these: 9th day of DSS drinking, 5 mg/kg i.v. on 6th and 7th days, FIG. 3.
From the text: as §1
(§3) The IBD model mice produced as described above were divided into the HMGB1 peptide (1-44) administration group (n=3) and the control group (n=3). […] Hereinafter, “the Xth day after the start of drinking the DSS aqueous solution” is expressed as an abbreviation “the Xth day of DSS drinking”.
(§4) The body weight of the mice was measured daily from the start of drinking the DSS aqueous solution until the removal of the large intestine. On the 9th day of DSS drinking, the large intestine was excised from the mice, and the length of the large intestine was measured. mRNA was extracted from the terminal part near the anus in the excised large intestine, and the expression level of inflammatory cytokines (TNF-α, IL-1β, and IL-6) was analyzed by quantitative PCR.

Assay [4] deals with IL-1β. In words: Example 1: inflammatory cytokine mRNA in large intestine by quantitative PCR (IL-1β). The conditions noted are these: 9th day of DSS drinking, 5 mg/kg i.v. on 6th and 7th days, FIG. 3.
From the text: as §1, §3, §4

Assay [5] relates to IBD model mice (DSS-induced enteritis). In words: DSS-induced colitis (IBD) model mice, Example 1: intravenous peptide on 6th and 7th days; body weight and large intestine length. The conditions noted are these: 9th day of DSS drinking, 5 mg/kg i.v. on 6th and 7th days, n=3. As for the experimental part: Dextran sulfate sodium (DSS) (molecular weight 5,000 to 6,000, manufactured by Nacalai Tesque, catalog No. 10930-94) was dissolved in water to prepare a 3% (w/v) DSS aqueous solution. A peptide consisting of amino acid residues 1-44 of the human-derived HMGB1 protein (SEQ ID NO: 1) was chemically synthesized by a solid-phase method. Hereinafter, the HMGB1 fragment peptide is referred to as the HMGB1 peptide (1-44) and is expressed as an abbreviation “1-44” in the drawings corresponding to the Examples. […]
as §3, §4

Assay [6] deals with IL-6. In words: Example 1: inflammatory cytokine mRNA in large intestine by quantitative PCR (IL-6). The conditions noted are these: 9th day of DSS drinking, 5 mg/kg i.v. on 6th and 7th days, FIG. 3.
From the text: as §1, §3, §4

As to “HMGB1 peptide (1-44): peptide consisting of amino acid residues 1-44 of the human-derived HMGB1 protein (SEQ ID NO: 1), chemically synthesized by a solid-phase method (MGKGDPKKPRGKMSSYAFFVQTCREEHKKKHPDASVNFSEFSKK)”, the “body weight vs control group” value is “higher than that of the control group” in assay [1] (FIG. 7); “significantly higher than that of the control group” in assay [2] (n=3, FIG. 4); “significantly higher than that of the control group” in assay [5] (FIG. 1). Moreover, the “length of the large intestine vs control group” value in assay [1] (FIG. 8) is reported as “longer than that of the control group”; in assay [2] (n=3, FIG. 5) it was “significantly longer than that of the control group”; in assay [5] (FIG. 2), “significantly longer than that of the control group”. Further, the “mucosal tissue damage of the large intestine (HE staining)” value in assay [2] (FIG. 6) was “damage of the mucosal tissue was suppressed”. For the same substance, the “expression level of TNF-α in the large intestine vs control group” value in assay [3] was “significantly lower than that of the control group”. Moreover, the “expression level of IL-1β in the large intestine vs control group” value in assay [4] is on record as “significantly lower than that of the control group”. Besides, the “expression level of IL-6 in the large intestine vs control group” value in assay [6] is “significantly lower than that of the control group”.
